Where a name gives a salt, the structure may show the parent alone.
Molecular target: MASP-2 CCP2-SP (Homo sapiens (Human), UniProt O00187)
Assay: MASP-2 co-crystallization, X-ray crystallography and structure analysis (H-bonds, van der Waals contacts);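 for Ligand-pharmacophore element distance, pharmacophore element C2: distance from averaged pharmacophore element to bound ligand; missing value means element absent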;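 for Ligand-pharmacophore element distance, pharmacophore element C3: distance from averaged pharmacophore element to bound ligand; missing value means element absent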;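 for Ligand-pharmacophore element distance, pharmacophore element C4: distance from averaged pharmacophore element to bound ligand; missing value means element absent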;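 for Ligand-pharmacophore element distance, pharmacophore element C5: distance from averaged pharmacophore element to bound ligand; missing value means element absent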
Set-up: van der Waals contact distance, MASP-2 HIS 483 atom CD2 / van der Waals contact distance, MASP-2 HIS 483 atom NE2 / van der Waals contact distance, SER 654 C to compound atom / van der Waals contact distance, SER 654 O to compound atom / van der Waals contact distance, TRP 655 C to compound atom / van der Waals contact distance, MASP-2 GLY 528 atom CA / van der Waals contact distance TRP 655 atom CZ3 / van der Waals contact distance TRP 655 atom N / van der Waals contact distance TRP 655 atom CE3 / van der Waals contact distance GLY 656 atom C / van der Waals contact distance GLY 656 atom CA / van der Waals contact distance GLY 656 atom O / van der Waals contact distance, MASP-2 TYR 607 atom CD1 / van der Waals contact distance, MASP-2 PRO 606 atom O / d(C3,CA1) / d(CA1,N1)2 / d(H4,O1) / d(H4,O2) / d(O1,O2) / d(CA1,O2) / d(CA6,O1) / d(CA6,O2) / d(CA1,C5) / d(O2,H3) / d(N2,C2) / d(CA5,N2) / d(N2,C4) / d(N2,C6) / d(N2,CA3) / d(N2,O3) / d(O4,H2): unit not given beside the values
Details: for Ligand-pharmacophore element distance, pharmacophore element C2 / Ligand-pharmacophore element distance, pharmacophore element C3 / Ligand-pharmacophore element distance, pharmacophore element C4 / Ligand-pharmacophore element distance, pharmacophore element C5 / Ligand-pharmacophore element distance, pharmacophore element C6 / Ligand-pharmacophore element distance, pharmacophore element C7 / Ligand-pharmacophore element distance, pharmacophore element CA1 / Ligand-pharmacophore element distance, pharmacophore element CA2 / Ligand-pharmacophore element distance, pharmacophore element CA3 / Ligand-pharmacophore element distance, pharmacophore element CA4 / Ligand-pharmacophore element distance, pharmacophore element CA5 / Ligand-pharmacophore element distance, pharmacophore element CA6: Table A4-1; for Pharmacophore torsion angle a(O1, O2, N2, CA2): Table A7-2; for H-bond distance to MASP-2 GLY 656 atom O: GLY 656 O; for van der Waals contact distance, TRP 655 C to compound atom / van der Waals contact distance, TRP 655 CA to compound atom: Table A2-12
Description: This example illustrates the preparation of recombinant MASP-2 protein, based on UniProt O00187, human mannan-binding lectin serine protease 2. Expression constructs for human MASP-2 CCP2-SP and CCP2-SP-6HIS were generated for recombinant expression in E. coli cells.
Typically, crystallization hits were obtained by screening against […] 96-well crystallization reagent kits (GRAS6, GRAS2, Hampton Research; MORPHEUS, Molecular Dimensions; Wizard 1&2 Cryo, Rigaku Reagents) and crystal growth was inspected by optical microscopy. Crystals were used directly or further optimized for X-ray diffraction. Crystals were captured with cryogenic loops and dipped into liquid nitrogen directly or cryoprotected with a 20% glycerol in crystallization formulation before flash-cooling in liquid nitrogen.
Thereafter crystals are transferred once or twice for soaking within the crystallization solution containing the MASP-2 inhibitor.
Crystals were diffracted with synchrotron X-rays of […] and X-ray diffraction datasets were collected at beamlines SSRL BL9-2, BL14-1, BL12-2 as well as ALS sector 5 using Dectris Pilatus and Eiger detectors. Structures were determined by molecular replacement using portions of the structure 1Q3X as search models and partially refined with Buster 2.10.2 or Refmac 5.8. […] When multiple ligand poses were observed, for instance arising from multiple molecules in the asymmetric unit or refined dual poses within the same molecule, only one pose was selected and analyzed.
LigPlot+ calls these ‘nonbonded contacts’ or ‘hydrophobic contacts’. Despite the name, there are atom pairings that include possible H-bonds. Thus, in some instances, the Table A2 also contains H-bond interactions.

[1] = Table A5-1 pharmacophore: distance between elements, S2/S1 region
[2] = Table A5-2 pharmacophore distance, S3/S4 region
[3] = Table A7-1, between pharmacophore elements of the bound compound
[4] = between pharmacophore elements of the bound compound

Sequence of MASP-2 CCP2-SP (O00187 445-686): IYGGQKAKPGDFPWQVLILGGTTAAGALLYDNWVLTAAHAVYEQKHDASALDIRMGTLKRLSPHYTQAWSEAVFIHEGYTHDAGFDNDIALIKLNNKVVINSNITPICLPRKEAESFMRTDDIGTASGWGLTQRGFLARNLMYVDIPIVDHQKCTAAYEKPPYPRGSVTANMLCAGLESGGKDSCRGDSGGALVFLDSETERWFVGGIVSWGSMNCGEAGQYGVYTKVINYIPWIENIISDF
Sequence of MASP-2 CCP2-SP (O00187 364-432 partner): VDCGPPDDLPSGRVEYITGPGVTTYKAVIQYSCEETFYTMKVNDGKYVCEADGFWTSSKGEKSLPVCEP

Cc1nc(N)ccc1CNC(=O)[C@H](C)NC(=O)[C@H]1C[C@H](Cc2ccccc2Br)CN1.O=C(O)C(F)(F)F.O=C(O)C(F)(F)F [1372_A]
Ligand-pharmacophore element distance, pharmacophore element C2: 0 | Ligand-pharmacophore element distance, pharmacophore element C3: 0.09 | Ligand-pharmacophore element distance, pharmacophore element C4: 1.91 | Ligand-pharmacophore element distance, pharmacophore element C5: 0 | Ligand-pharmacophore element distance, pharmacophore element C6: 0 | Ligand-pharmacophore element distance, pharmacophore element C7: 0 | Ligand-pharmacophore element distance, pharmacophore element CA1: 0.55 | Ligand-pharmacophore element distance, pharmacophore element CA2: 0.47 | Ligand-pharmacophore element distance, pharmacophore element CA3: 0 | Ligand-pharmacophore element distance, pharmacophore element CA4: 0 | Ligand-pharmacophore element distance, pharmacophore element CA5: 0 | Ligand-pharmacophore element distance, pharmacophore element CA6: 0 | d(C3,CA1) [1]: 2.85 | d(CA1,N1)2 [1]: 1.38 | d(CA1,O1) [1]: 4.38 | d(CA1,O2) [1]: 3.94 | d(H4,O1) [1]: 4.40 | d(H4,O2) [1]: 3.88 | d(O1,O2) [1]: 3.32 | d(N2,C4) [2]: 6.06 | d(N2,C4)4 [2]: 6.06 | d(N2,CA2) [2]: 5.99 | d(O2,H3) [2]: 2.30 | d(O2,N2) [2]: 2.66 | a(C3, CA1, O1) (Table A6-1 pharmacophore angle): 149.88 | a(CA1, O1, O2) (Table A6-1 pharmacophore angle): 106.33 | a(O1, O2, H4) (Table A6-1 pharmacophore angle): 133.23 | a(N1, CA1, O1) b) (Table A6-1 pharmacophore angle, Methyl-amino-pyridine compounds): 174.16 | a(O1, O2, H3) (Table A6-2 pharmacophore angle): 137.15 | a(O1, O2, N2) (Table A6-2 pharmacophore angle): 140.15 | a(O2, N2, C4) (Table A6-2 pharmacophore angle): 159.60 | a(O2, N2, C4) 2 (Table A6-2 pharmacophore angle): 127.51 | a(O2, N2, CA2) (Table A6-2 pharmacophore angle): 155.91 | Pharmacophore torsion angle a(C3, CA1, O1, H4) [3]: 25.78 | Pharmacophore torsion angle a(H4, O1, O2, H3) [3]: 99.84 | Pharmacophore torsion angle a(H4, O1, O2, N2) [3]: 136.36 | Pharmacophore torsion angle a(N1, CA1, O1, H4) [3]: 5.73 | Pharmacophore torsion angle a(O1, H4, O2, CA1) [3]: −83.68 | Pharmacophore torsion angle a(O1, O2, N2, CA2) [4]: 129.48

C[C@H](NC(=O)[C@H]1C[C@@H](c2ccccc2)CCN1)C(=O)NCc1cc(Cl)ccc1O.Cl [1078_12]
Ligand-pharmacophore element distance, pharmacophore element C2: 0.4 | Ligand-pharmacophore element distance, pharmacophore element C3: 0 | Ligand-pharmacophore element distance, pharmacophore element C4: 0 | Ligand-pharmacophore element distance, pharmacophore element C5: 0.52 | Ligand-pharmacophore element distance, pharmacophore element C6: 0 | Ligand-pharmacophore element distance, pharmacophore element C7: 0 | Ligand-pharmacophore element distance, pharmacophore element CA1: 1.43 | Ligand-pharmacophore element distance, pharmacophore element CA2: 0.64 | Ligand-pharmacophore element distance, pharmacophore element CA3: 0 | Ligand-pharmacophore element distance, pharmacophore element CA4: 0 | Ligand-pharmacophore element distance, pharmacophore element CA5: 0 | Ligand-pharmacophore element distance, pharmacophore element CA6: 0 | d(CA1,C5) [1]: 3.12 | d(CA1,O1) [1]: 4.34 | d(CA1,O2) [1]: 4.51 | d(CA1,O4) [1]: 2.74 | d(H4,O1) [1]: 3.08 | d(H4,O2) [1]: 3.40 | d(O1,O2) [1]: 2.81 | d(O4,H2) [1]: 0.98 | d(N2,C2) [2]: 1.45 | d(N2,CA2) [2]: 5.74 | d(O2,H3) [2]: 2.85 | d(O2,N2) [2]: 2.84 | a(C5, CA1, O1) (Table A6-1 pharmacophore angle): 161.92 | a(CA1, O1, O2) (Table A6-1 pharmacophore angle): 111.74 | a(CA1, O4, H2) (Table A6-1 pharmacophore angle): 127.55 | a(O1, CA1, O4) (Table A6-1 pharmacophore angle): 67.44 | a(O1, O2, H4) (Table A6-1 pharmacophore angle): 128.90 | a(O1, O2, H3) (Table A6-2 pharmacophore angle): 150.80 | a(O1, O2, N2) (Table A6-2 pharmacophore angle): 154.56 | a(O2, N2, C2) (Table A6-2 pharmacophore angle): 130.32 | a(O2, N2, CA2) (Table A6-2 pharmacophore angle): 157.60 | Pharmacophore torsion angle a(C5, CA1, O1, H4) [3]: 11.21 | Pharmacophore torsion angle a(H4, O1, O2, H3) [3]: −120.32 | Pharmacophore torsion angle a(H4, O1, O2, N2) [3]: −108.09 | Pharmacophore torsion angle a(O1, H4, O2, CA1) [3]: −75.33 | Pharmacophore torsion angle a(O1, O2, N2, C2) [3]: 114.97 | Pharmacophore torsion angle a(O1, O2, N2, CA2) [4]: 110.39

C[C@H](NC(=O)[C@H](N)CCc1ccccc1)C(=O)NCc1cc(Cl)ccc1O [compound 1031, (R)-2-Amino-N—((S)-1-((5-chloro-2-hydroxybenzyl)amino)-1-oxopropan-2-yl)-4-phenylbutanamide Hydrochloride]
H-bond distance to MASP-2 ARG 630 atom NH1 (second bond) (Table A1 (H-Bonds), ARG 630 NH1): 2.83 | H-bond distance to MASP-2 GLY 656 atom O (Table A1 (H-Bonds)): 2.67 | van der Waals contact distance, MASP-2 HIS 483 atom CD2 (Table A2-1): 3.57 | van der Waals contact distance, MASP-2 HIS 483 atom CE1 (Table A2-1): 3.62 | van der Waals contact distance, MASP-2 HIS 483 atom NE2 (Table A2-1): 3.17 | van der Waals contact distance, MASP-2 PHE 529 atom CE2 (Table A2-3): 3.75 | van der Waals contact distance, MASP-2 TYR 607 atom CD1 (Table A2-4): 3.85 | van der Waals contact distance, MASP-2 amino acid atom to compound atom (Table A2-9 second part, ARG 630, AA atoms N, NE, NH1, Hydrochloride): 3.34 | van der Waals contact distance, VAL 653 CG1 to compound atom (Table A2-11): 3.58 | van der Waals contact distance, SER 654 C to compound atom (Table A2-11, Hydrochloride): 3.56 | van der Waals contact distance, TRP 655 C to compound atom (Hydrochloride): 3.26 | van der Waals contact distance, TRP 655 CA to compound atom (Hydrochloride): 3.64 | van der Waals contact distance GLY 656 atom C (Table A2-13, MASP-2 GLY 656 C): 3.61 | van der Waals contact distance TRP 655 atom CE3 (Table A2-13, MASP-2 TRP 655 CE3, compound atom in line below): 3.49 | van der Waals contact distance TRP 655 atom N (Table A2-13, MASP-2 TRP 655 N): 3.28

C[C@H](NC(=O)[C@H]1C[C@H](c2ccccc2)CN1)C(=O)NCc1ccc(N)nc1 [compound 1012]
H-bond distance to MASP-2 ASP 627 atom OD2 (Table A1 (H-Bonds), ASP 627 OD2): 3.18 | H-bond distance to MASP-2 GLY 656 atom N (Table A1 (H-Bonds), GLY 656 N): 3.18 | H-bond distance to MASP-2 GLY 656 atom O (Table A1 (H-Bonds)): 2.77 | H-bond distance to MASP-2 SER 654 atom O (Table A1 (H-Bonds), SER 654 O): 2.93 | H-bond distance to MASP-2 SER 657 atom O (Table A1 (H-Bonds), SER 657 O): 2.89 | van der Waals contact distance, MASP-2 HIS 483 atom CD2 (Table A2-1): 3.63 | van der Waals contact distance, MASP-2 PHE 529 atom CE1 (Table A2-3): 3.75 | van der Waals contact distance, MASP-2 PHE 529 atom CE2 (Table A2-3): 3.78 | van der Waals contact distance, MASP-2 PRO 606 atom CG (Table A2-4): 3.85 | van der Waals contact distance, MASP-2 amino acid atom to compound atom (Table A2-5: TYR 607 (CE1, CE2, OH), PRO 608 (CD, CG), SER 611 (CA)): 3.88 | van der Waals contact distance, MASP-2 amino acid atom to compound atom (Table A2-6: SER 611 (CB, OG), ASP 627 (CG, OD1, OD2), SER 628 (C, CA)): 3.6 | van der Waals contact distance, MASP-2 amino acid atom to compound atom (Table A2-7: SER 628 (CB, O, OG)): 3.53 | van der Waals contact distance, MASP-2 amino acid atom to compound atom (Table A2-9, ARG 630, AA atoms CG, CZ): 3.83 | van der Waals contact distance, TRP 655 C to compound atom: 3.8 | van der Waals contact distance, TRP 655 CA to compound atom: 3.36 | van der Waals contact distance GLY 656 atom CA (Table A2-13, MASP-2 GLY 656 CA): 3.73

Source: patent publication US12195427B2, “MASP-2 inhibitors and methods of use” (priority 2018, dated 2025)
